According to PMC9917550, “Discovery of Novel Thiazolidinedione-Derivatives with Multi-Modal Antidiabetic Activities In Vitro and In Silico” (International Journal of Molecular Sciences, 2023):

What was measured:
α-glucosidase [1] = target: T1, α-glucosidase (Saccharomyces cerevisiae, UniProt P53341); assay type: biochemical
α-amylase = target: T2, α-amylase (Sus scrofa, UniProt P00690); experiment: α-amylase inhibition assay; assay type: biochemical; conditions: 10-50 µg/mL, versus control, p < 0.05
T2 sequence (P00690 16-511): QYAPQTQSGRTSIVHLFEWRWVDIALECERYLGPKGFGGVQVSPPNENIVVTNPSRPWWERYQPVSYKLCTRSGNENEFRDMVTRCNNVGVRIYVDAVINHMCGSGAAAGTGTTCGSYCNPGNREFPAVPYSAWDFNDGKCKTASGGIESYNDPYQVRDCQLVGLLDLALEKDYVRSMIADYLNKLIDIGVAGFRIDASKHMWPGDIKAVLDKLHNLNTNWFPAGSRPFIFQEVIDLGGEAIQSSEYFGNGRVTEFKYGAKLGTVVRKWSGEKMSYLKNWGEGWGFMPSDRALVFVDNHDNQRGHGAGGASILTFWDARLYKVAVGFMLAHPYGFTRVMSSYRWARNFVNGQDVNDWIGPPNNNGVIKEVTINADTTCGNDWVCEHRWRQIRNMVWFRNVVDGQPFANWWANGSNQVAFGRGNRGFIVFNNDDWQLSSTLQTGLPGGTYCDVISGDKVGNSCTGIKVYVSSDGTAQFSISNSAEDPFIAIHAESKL
Procedure: The α-amylase inhibitory activity was determined using the method described by the Worthington Enzyme Manual with slight modifications. The TZD derivatives were assayed at 10, 20, 30, 40, and 50 µg/mL. […] The sodium phosphate buffer was used as a blank. The inhibitory activity was calculated according to the equation:
Inhibition (%) = ((Acontrol − Asample)/Acontrol) × 100%, where Acontrol was the absorbance of the control (without the inhibitor); Asample was the absorbance in the presence of TZD derivatives.

aldose reductase = aldose reductase (Homo sapiens, UniProt P15121); experiment: Aldose reductase inhibition assay; assay type: biochemical; conditions: for aldose reductase inhibitory activity (in words): 10-50 µg/mL, versus control, p < 0.05; for IC50: read-out: IC50 for the Inhibitory Activity Assays, AR (converted)
Procedure: The aldose reductase (AR) inhibition assay was performed according to the method described by Kazeem et al. with minor modifications. All the TZD derivatives were assayed at 10, 20, 30, 40, and 50 µg/mL. […] The absolute standard contained all the reagents used except for the inhibitor compounds. The aldose reductase inhibition activity was calculated as a percentage inhibition from:
(§1) % Inhibition = [(∆Abscontrol − ∆Abssample)/∆Abscontrol] × 100%, where ∆Abs is the change is absorbance.

[2] = target: T3, protein tyrosine phosphatase-1B (PTP-1B) (Homo sapiens, UniProt P18031); experiment: Protein tyrosine phosphatase-1B inhibition assay; assay type: biochemical; conditions: for PTP-1B inhibitory activity (in words): 10-50 µg/mL, versus control; for IC50: read-out: IC50 for the Inhibitory Activity Assays, PTP-1B (converted)
T3 sequence (P18031 1-435): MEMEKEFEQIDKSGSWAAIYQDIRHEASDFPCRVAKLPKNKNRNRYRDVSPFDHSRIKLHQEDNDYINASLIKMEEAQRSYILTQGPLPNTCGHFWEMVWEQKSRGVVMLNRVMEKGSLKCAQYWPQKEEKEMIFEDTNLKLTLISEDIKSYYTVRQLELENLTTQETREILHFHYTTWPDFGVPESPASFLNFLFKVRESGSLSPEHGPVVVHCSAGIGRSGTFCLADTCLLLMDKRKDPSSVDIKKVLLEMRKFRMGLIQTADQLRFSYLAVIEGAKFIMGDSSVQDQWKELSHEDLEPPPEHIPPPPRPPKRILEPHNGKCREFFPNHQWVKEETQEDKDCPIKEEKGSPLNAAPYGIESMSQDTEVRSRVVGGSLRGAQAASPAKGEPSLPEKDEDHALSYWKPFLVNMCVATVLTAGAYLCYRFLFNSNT
Procedure: The protein tyrosine phosphatase-1B (PTP-1B) inhibition assay was performed according to the method described by Song et al. with some modifications. […] The absolute control contained all the reagents used except the inhibitor compounds. The inhibition activity was calculated using:
as §1

DPP-4 = target: T4, DPP-4 (Homo sapiens, UniProt P27487); experiment: Dipeptidyl peptidase-4 inhibition assay (DPP-4 Inhibitor Screening Kit); assay type: biochemical; conditions: for DPP-4 inhibitory activity (in words): 10-50 µg/mL, versus control; for IC50: read-out: IC50 for the Inhibitory Activity Assays, DPP-4 (converted); for DPP-4 inhibition: 10, 20, 30, 40 and 50 µg/mL
T4 construct: purchased Sigma-Aldrich MAK203
Procedure: This assay was performed according to the DPP-4 Inhibitor Screening Kit (catalogue number: MAK203) product information (Sigma-Aldrich.com) with minor modifications to the volumes to suit the 96-well plate assay.

liver cells (HEP-G2) = experiment: Glucose uptake in liver cells; assay type: cell-based; conditions: 25, 50 and 100 µg/mL, 24 h, versus control
Procedure: HEPG-2 liver cells were cultured in MEME supplemented with pen/strep (1%) and FBS (10%) in a […] under tissue culture conditions. Upon confluency (80%), cells were trypsinized and seeded into the 96-well plates. Upon confluency, the cell preparations were exposed to different concentrations (25, 50, and 100 µg/mL) of TZDDs, and a media glucose reading was taken before incubation (time = 0). Thereafter, the plates containing cells and treatments were incubated for 24 h under tissue culture conditions. The non-treated cells and insulin treated cells served as absolute and positive controls, respectively. After a 24 h incubation, the medium glucose was taken using a glucometer. The percentage glucose uptake was calculated as follows:
Glucose uptake (%) = (T24/T0) × 100

α-glucosidase [3] = target: T1, α-glucosidase; experiment: Mode of inhibition of α-glucosidase (Michaelis-Menten, Lineweaver-Burk); assay type: biochemical; conditions: substrate pNPG
Procedure: The Ki values were calculated with GraphPad Prism 9.2.0. (332) by plotting the reciprocal of maximum velocity (1/Vmax) (y-axis) against the derivative concentrations (x-axis). The types of inhibition parameters were all calculated with GraphPad Prism 9.2.0. Briefly, 30 µL of α-glucosidase enzyme (0.5 IU/mL) was dissolved in the 0.02 M phosphate buffer (pH 6.9), and then was pre-incubated at 37 °C with the above-mentioned derivative (50 µL) in a 96-well plate, for 5 min. In sequence, pNPG (0.125, 0.250, 0.500, 0.750, 1.000, 1.500, 2.000, 2.500, and 5.000 mM) was added and incubated in the reaction mixture at 37 °C for 30 min.

T4 sequence (P27487 whole entry, species assumed): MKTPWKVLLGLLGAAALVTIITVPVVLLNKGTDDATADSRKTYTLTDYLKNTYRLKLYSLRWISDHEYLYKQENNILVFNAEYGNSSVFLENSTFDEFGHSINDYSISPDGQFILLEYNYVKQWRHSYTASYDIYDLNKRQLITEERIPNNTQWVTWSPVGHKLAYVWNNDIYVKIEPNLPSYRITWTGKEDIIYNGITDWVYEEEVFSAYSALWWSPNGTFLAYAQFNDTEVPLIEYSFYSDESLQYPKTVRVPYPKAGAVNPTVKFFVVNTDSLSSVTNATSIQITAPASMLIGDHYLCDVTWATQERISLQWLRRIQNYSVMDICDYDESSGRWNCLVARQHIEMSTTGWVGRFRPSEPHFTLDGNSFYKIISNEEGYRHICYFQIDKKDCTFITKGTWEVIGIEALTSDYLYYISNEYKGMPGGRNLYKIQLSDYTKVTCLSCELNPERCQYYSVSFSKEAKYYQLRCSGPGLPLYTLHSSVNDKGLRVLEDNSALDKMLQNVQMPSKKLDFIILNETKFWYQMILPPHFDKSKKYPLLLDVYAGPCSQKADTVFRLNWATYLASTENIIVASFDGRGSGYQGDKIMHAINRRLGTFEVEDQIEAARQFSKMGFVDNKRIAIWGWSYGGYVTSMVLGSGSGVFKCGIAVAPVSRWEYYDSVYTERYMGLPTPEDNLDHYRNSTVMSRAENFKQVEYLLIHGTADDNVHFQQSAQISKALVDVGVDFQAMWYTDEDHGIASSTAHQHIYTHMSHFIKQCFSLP
T1 sequence (P53341 whole entry): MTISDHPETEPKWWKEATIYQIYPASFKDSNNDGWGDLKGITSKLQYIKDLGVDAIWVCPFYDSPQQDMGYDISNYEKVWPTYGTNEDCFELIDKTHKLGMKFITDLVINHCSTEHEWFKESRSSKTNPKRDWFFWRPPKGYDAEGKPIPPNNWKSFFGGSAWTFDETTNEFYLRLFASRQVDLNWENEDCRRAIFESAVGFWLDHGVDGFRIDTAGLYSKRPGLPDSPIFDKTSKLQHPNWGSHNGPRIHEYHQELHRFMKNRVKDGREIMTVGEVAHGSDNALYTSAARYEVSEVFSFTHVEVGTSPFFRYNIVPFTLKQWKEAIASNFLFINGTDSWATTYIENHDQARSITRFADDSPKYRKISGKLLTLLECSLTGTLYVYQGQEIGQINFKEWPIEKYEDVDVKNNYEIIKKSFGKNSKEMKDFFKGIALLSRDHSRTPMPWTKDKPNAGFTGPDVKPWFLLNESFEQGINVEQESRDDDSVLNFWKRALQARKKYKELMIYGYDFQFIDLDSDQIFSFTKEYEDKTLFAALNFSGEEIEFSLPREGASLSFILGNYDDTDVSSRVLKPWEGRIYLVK

| Compound | α-glucosidase inhibitory activity (in words) (α-glucosidase [1]) | α-amylase inhibitory activity (in words) (α-amylase) | aldose reductase inhibitory activity (in words) (aldose reductase) | IC50 (aldose reductase) | IC50 for the Inhibitory Activity Assays, PTP-1B [2] | PTP-1B inhibitory activity (in words) [2] | DPP-4 inhibitory activity (in words) (DPP-4) | IC50 (DPP-4) | IC50 [2] | DPP-4 inhibition (DPP-4) | Effect on glucose uptake (liver cells (HEP-G2)) | Vmax (α-glucosidase [3]; TZDD3 at 60 µg/mL) | Vmax (α-glucosidase [3]; TZDD3 at 120 µg/mL) |
| --- | --- | --- | --- | --- | --- | --- | --- | --- | --- | --- | --- | --- | --- |
| C[C@H]1O[C@H](O[C@H]2[C@H](O)[C@@H](O)[C@@H](O[C@H]3[C@H](O)[C@@H](O)C(O)O[C@@H]3CO)O[C@@H]2CO)[C@H](O)[C@@H](O)[C@@H]1N[C@H]1C=C(CO)[C@@H](O)[C@H](O)[C@H]1O (stereo partly drawn) [Acarbose, reference compound] | significant (p < 0.05) inhibitory activity | significant (p < 0.05) inhibitory activity |  |  |  |  |  |  |  |  |  |  |  |
| O=c1c(O)c(-c2ccc(O)c(O)c2)oc2cc(O)cc(O)c12 [Quercetin, reference compound] |  |  | significant (p < 0.05) inhibitory activity |  |  |  |  |  |  |  |  |  |  |
| COc1cc(OC)c(/C=C2/SC(=O)N(CC(=O)N3CCN(c4ccccc4)CC3)C2=O)c(OC)c1 [TZDD1, (E)-5-(2,4,6-trimethoxybenzylidene)-3-(2-oxo-2-(4-phenylpiperazin-1-yl)ethyl)thiazolidine-2,4-dione] |  | showed inhibitory activity | concentration-dependent inhibitory activity | 55.3 µM | unstable | weak inhibitory activity | very weak inhibitory activity | 147 µM |  |  |  |  |  |
| Cc1cc(/C=C2\SC(=O)N(CC(=O)N3CCCC3)C2=O)c(C)n1-c1ccccc1 [TZDD2, (Z)-5-((2,5-Dimethyl-1phenyl-1H-pyrrol-3-yl)methylene)-3-(2-oxo-2-(pyrrolidin-1-yl)ethyl)thiazolidine-2,4-dione] |  | showed inhibitory activity |  | 201 µM |  | weak inhibitory activity | relatively higher activity | 78 µM | 334 µM | ≥ 20% | increase glucose uptake |  |  |
| Cc1cc(/C=C2\SC(=O)N(CC(=O)O)C2=O)c(C)n1-c1ccccc1 [TZDD3, (Z)-2-(5-((2,5-Dimethyl-1-phenyl-1H-pyrrol-3-yl)methylene)-2,4-dioxothiazolidin-3-yl)acetic Acid] |  | concentration-dependent inhibitory activity | decreasing inhibition activity | 161 µM | unstable |  | very weak inhibitory activity | 213 µM |  |  |  | 59.43 | 32.76 |
| Cc1cc(/C=C2/S/C(=N\c3ccccc3)NC2=O)c(C)n1-c1ccccc1 [TZDD4, (2Z,5E)-5-((2,5-dimethyl-1-phenyl-1H-pyrrol-3-yl)methylene)-2-(phenylimino)thiazolidin-4-one] |  | showed inhibitory activity |  | 98.5 µM |  | weak inhibitory activity |  | 192 µM | 693 µM | ≥ 20% |  |  |  |
| insulin |  |  |  |  |  |  |  |  |  |  | enhanced glucose uptake |  |  |
